By IC50 is commonly meant the midpoint of a concentration-inhibition curve.

Results on six compounds are retold here after PMC7698965 (Cancers, 2020).

Like-named read-outs stand apart in the source and are kept apart here.

One data set relates to HT-29. To be noted: 24 h incubation, SRB; cited from earlier work.
Another data set deals with U87 MG. To be noted: 24 h incubation, SRB; cited from earlier work.
The test system of the next data set is C6. To be noted: cited from earlier work; for IC50: 24 h incubation, SRB.
A further data set has as its system F98-cell. More on the design: method as in earlier work. To be noted: post-neutron irradiation (2 Gy), cited from earlier work.
The test system of a further data set is S. typhimurium TA98. Description: Ames test. To be noted: TA98, positive control NPD 20.0 mg/plate. A general note: In the Ames test, an excess of revertant colonies over the control signals mutagenicity.
For a further data set, the system named is S. typhimurium TA100. Description: Ames test. To be noted: TA100, positive control NPD 2.0 mg/plate.
For data set [1], the system named is U87 MG human glioblastoma. Description: In vivo anti-glioblastoma activity.
The next data set has as its system AMPK. Conditions: read-out: IC50,Sun,AMPK; cited from earlier work.
A further data set has as its system RSK1. Conditions: read-out: IC50,Sun,RSK1; cited from earlier work.
A further data set deals with astrocytes. Nature of the data set: Cell cycle/DNA content by flow cytometry. Type of data set: cell-based, mouse. Conditions: 24 h at IC50 (1 8.0 μM, Sun 32 μM). (A flow cytometer gives signals particle by particle.)
Data set [2] relates to U87 MG cells co-cultured with neonatal murine astrocytes. Description: Confocal microscopy of treated co-cultures (PKH26, DAPI). Type of data set: cell-based, human. To be noted: IC50,U87 MG doses, 24 h.
Method: Astrocytes (3 × 10^4 cells) were seeded into p35 dishes and were allowed to grow until 80% confluence. Next, 5 × 10^4 U87 MG stained cells with PKH26 dye were seeded onto a p35 dish containing a growing primary cell culture of astrocytes. […] A p60 dish treated with 1% DMSO served as a negative control. Treated cells were incubated for further 24 h. After that, treated co-cultures were fixed for 20 min at 4 °C with PFA and washed 2 times with PBS. Then, samples were permeabilized for 10 min at room temperature with 0.1% Triton X-100 in PBS, passed through washing PBS, blocked with 5% BSA:PBS for 1 h at room temperature, and incubated overnight in a solution of 1% BSA:PBS containing the primary antibody and DAPI at 4 °C. After washing, treated cells were incubated in 1:500-diluted secondary antibody during 2 h at room temperature. […] DAPI was used at a 1:1000 dilution. Antibodies were detected by confocal microscopy using a confocal Olympus FV300 microscope.
Another data set has as its system U87 MG cells. Description: Cell cycle/DNA content by flow cytometry. Type of data set: cell-based, human. To be noted: 24 h at IC50 (1 8.0 μM, Sun 32 μM).
Setting [3] is: 1 at 1 mg/kg/day, Tmz at 4 mg/kg/day, ip three times a week.

Method for S. typhimurium TA100: (§1) Salmonella typhimurium TA98 and TA100 strains were incubated in agar minimum glucose milieu solution (Difco Bacto® agar) and aqueous glucose solution (40%). […] Briefly, 1 in phosphate buffer (0.1 M, pH 7.4) and DMSO (10%, v/v) at five doses, 0.450, 0.150, 0.050, 0.016, and 0.005 μg/plate, starting at the highest doses without toxic effects (0.450 μg/plate), were studied in triplicate. […] The revertants were counted and the studied system was considered mutagenic if the colonies number was at least doubled the natural revertants (negative control) for two or more consecutive doses.
Method for S. typhimurium TA98: as §1

Consider `CS(=O)(=O)CCNCc1ccc(-c2ccc3ncnc(Nc4ccc(OCc5cccc(F)c5)c(Cl)c4)c3c2)o1` [Lap, lapatinib], for which the values for the IC50 in the data set on HT-29, with U87 MG and in the data set with C6 were 6.25 ± 0.05 µM, 54 ± 14 µM and more than 100 µM, respectively. The “percent of cells survival at 100 μM” value in the data set on C6 (C6, 100 μM) is 89 ± 5%. The “percentages of cell survival at 100 μM” value in the data set with C6 (C6, 100 μM) is 89 ± 5%.
“10B-boronophenylalanine fructose [Compound 10BPA-fr]”: the “Surviving Fraction” value with F98-cell (0.1 ppm equivalents of 10B) is listed as 89 ± 11%; in the data set on F98-cell (1.0 ppm equivalents of 10B), 71 ± 11%; in the data set with F98-cell (10.0 ppm equivalents of 10B), 92 ± 6%.
In the case of `Nc1ccc([N+](=O)[O-])cc1N` [Positive control, 4-Nitro-o-phenylendiamine], the values for the Number of revertants in the data set on S. typhimurium TA98 and with S. typhimurium TA100 were 295 ± 11 and 704 ± 6, respectively.
With `C#Cc1cccc(Nc2ncnc3cc(OCCOC)c(OCCOC)cc23)c1` [Erl, erlotinib], the IC50 is more than 100 µM in the data set on HT-29, 63 ± 5 µM in the data set on U87 MG and more than 100 µM with C6.
As to `Cn1nnc2c(C(N)=O)ncn2c1=O` [Tmz, temozolomide], in data set [1] (setting [3]), the mouse survival time is listed as 27 days and the “time to mouse deaths” value was 23 days. Further, the median survival in data set [1] (Tmz 4 mg/kg/day ip three times a week) was 23 days.
As for `CCN(CC)CCNC(=O)c1c(C)[nH]c(/C=C2\C(=O)Nc3ccc(F)cc32)c1C` [Sun, sunitinib], the IC50 was 6.25 ± 0.04 µM in the data set with HT-29; 0.32 µM in the data set on AMPK; 32 ± 4 µM in the data set with U87 MG; 36 ± 10 µM in the data set with C6; […] in the data set on RSK1. Moreover, the “effect on cell cycle distribution” value in the data set on astrocytes was “increase in the percentage of both astrocytes and U87 MG cells in the sub-G1 phase”; in the data set with U87 MG cells, “increase in the percentage of both astrocytes and U87 MG cells in the sub-G1 phase”. Besides, the DAPI nuclei staining entry in data set [2] was “chromatin condensation”. For the same compound, the “U87 MG population (PKH26 dye) compared to the control” value in data set [2] is “decrease of U87 MG population”.
